# Laboratory results reported in US8642594B2, “Substituted thieno[2,3-d]pyrimidines as HSP90 inhibitors” (Vernalis (R&D) Limited, priority 2003, dated 2014).
# Target: T1, Human full-length Hsp90 (Homo sapiens, UniProt P08238)
# T1 construct: E. coli expressed human full-length HSP90 protein, purified >95%; made in house; host or cells: E. coli
# Test: Fluorescence polarization assay (competitive binding to HSP90, probe RBT0045864-FAM)
# Conditions: not given
# Protocol: Fluorescence Polarization Assay
# Fluorescence polarization {also known as fluorescence anisotropy} measures the rotation of a fluorescing species in solution, where the larger molecule the more polarized the fluorescence emission. When the fluorophore is excited with polarized light, the emitted light is also polarized. The molecular size is proportional to the polarization of the fluorescence emission.
# The fluoroscein-labelled probe—RBT0045864-FAM—
# Test compound is added to the assay plate, left to equilibrate and the anisotropy measured again. Any change in anisotropy is due to competitive binding of compound to HSP90, thereby releasing probe.
# Stored at room temperature. • 3) BSA (bovine serum albumen) 10 mg/ml (New England Biolabs #B9001S) • 4) 20 mM probe in 100% DMSO stock concentration. Stored in the dark at RT. Working concentration is 200 nM diluted in AR water and stored at 4° C. […] Protocol • 1) Add 100 μl 1× buffer to wells 11A and 12A (=FP BLNK) • 2) Prepare assay mix—all reagents are kept on ice with a lid on the bucket as the probe is light-sensitive.
# This gives 2.5 mM {50×} stock cpd—assuming cpds 20 mM. • 4) Repeat for wells A2 to A10. Control in columns 11 and 12. • 5) Transfer 5 μl from row A to row B—not column 12. Mix well. • 6) Transfer 5 μl from row B to row C. […] Add 2 μl of 100 mM standard cpd to wells B12-H12 {is positive control} • 13) The Z′ factor is calculated from zero controls and positive wells.
# T1 sequence (P08238 whole entry): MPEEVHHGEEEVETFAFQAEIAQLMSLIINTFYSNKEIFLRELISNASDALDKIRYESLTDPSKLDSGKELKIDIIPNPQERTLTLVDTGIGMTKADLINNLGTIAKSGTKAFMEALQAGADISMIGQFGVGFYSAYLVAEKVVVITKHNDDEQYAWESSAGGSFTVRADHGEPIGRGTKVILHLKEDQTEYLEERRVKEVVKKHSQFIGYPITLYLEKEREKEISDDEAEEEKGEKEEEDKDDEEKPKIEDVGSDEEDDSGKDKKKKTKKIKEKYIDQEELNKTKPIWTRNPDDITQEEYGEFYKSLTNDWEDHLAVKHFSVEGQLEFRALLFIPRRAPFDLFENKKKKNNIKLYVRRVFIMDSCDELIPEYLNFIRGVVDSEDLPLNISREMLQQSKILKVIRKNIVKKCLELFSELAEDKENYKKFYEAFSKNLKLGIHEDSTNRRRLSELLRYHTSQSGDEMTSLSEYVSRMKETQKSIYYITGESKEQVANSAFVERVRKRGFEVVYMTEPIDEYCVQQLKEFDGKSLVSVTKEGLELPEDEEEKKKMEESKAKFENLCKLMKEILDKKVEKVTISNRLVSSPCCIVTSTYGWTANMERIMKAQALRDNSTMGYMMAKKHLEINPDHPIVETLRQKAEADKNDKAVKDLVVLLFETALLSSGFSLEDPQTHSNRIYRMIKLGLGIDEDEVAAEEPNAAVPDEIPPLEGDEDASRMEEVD
row,IC50,SMILES
1,< 10 µM,"CCNC(=O)c1cc2c(-c3ccccc3)nc(N)nc2s1 [Example 43, 2-Amino-4-phenyl-thieno[2,3-d]pyrimidine-6-carboxylic acid ethylamide]"
2,< 10 µM,CCNC(=O)c1cc2c(-c3ccc(C#N)cc3C)nc(N)nc2s1 [Example 84]

row,SMILES,IC50
1,CCNC(=O)c1cc2c(-c3ccc(C)cc3C)nc(N)nc2s1 [Example 80],< 10 µM

# Same assay, conditions: fluorescence polarization assay, activity range; read-out: Hsp90 FP IC50
row,SMILES,IC50
1,CCOC(=O)c1cc2c(C=Cc3ccccc3)nc(N)nc2s1 [275 Step 1],< 10 µM
2,CCOC(=O)c1cc2c(-c3ccc(C(F)(F)F)cc3C(F)(F)F)nc(N)nc2s1 [Example 4],< 10 µM
3,CCOC(=O)CSc1nc(N)nc2sc(C(=O)OCC)cc12 [Example 20],> 10 µM
4,COC(=O)c1cc2c(Nc3ccccc3)nc(N)nc2s1 [Example 21],> 10 µM
5,"COC(=O)c1cc2c(NCc3ccccc3)nc(N)nc2s1 [Example 22, 2-Amino-4-benzylamino-thieno[2,3-d]pyrimidine-6-carboxylic acid methyl ester]",> 10 µM
6,COC(=O)c1cc2c(N(C)Cc3ccccc3)nc(N)nc2s1 [Example 23],> 10 µM
7,CCOC(=O)c1cc2c(NC(c3ccccc3)c3ccccc3)nc(N)nc2s1 [Example 25],> 10 µM
8,CCOC(=O)c1cc2c(NC(C)c3ccccc3)nc(N)nc2s1 (stereo not drawn) [Example 26],> 10 µM
9,CNC(=O)c1cc2c(Oc3ccccc3)nc(N)nc2s1 [Example 27],> 10 µM
10,CCOC(=O)c1cc2c(NC(C)(C)c3ccccc3)nc(N)nc2s1 [Example 29],> 10 µM
11,CCOC(=O)c1cc2c(NCCCN3CCCC3=O)nc(N)nc2s1 [Example 31],> 10 µM
12,CCOC(=O)c1cc2c(NCCCc3c[nH]nc3O)nc(N)nc2s1 [Example 36],> 10 µM
13,CCOC(=O)c1cc2c(NCCCc3c[nH]nc3C)nc(N)nc2s1 [Example 37],> 10 µM
14,CCOC(=O)c1cc2c(Nc3ccc4cn[nH]c4c3)nc(N)nc2s1 [Example 39],> 10 µM
15,CN(C)CCNC(=O)c1cc2c(-c3ccccc3)nc(N)nc2s1 [Example 44],< 10 µM
16,CN(C)CCCNC(=O)c1cc2c(-c3ccccc3)nc(N)nc2s1 [Example 45],> 10 µM
17,CCCNC(=O)c1cc2c(-c3ccccc3)nc(N)nc2s1 [Example 47],< 10 µM
18,CCCCNC(=O)c1cc2c(-c3ccccc3)nc(N)nc2s1 [Example 48],> 10 µM
19,Nc1nc(-c2ccccc2)c2cc(C(=O)NCCc3ccccc3)sc2n1 [Example 49],> 10 µM
20,Nc1nc(-c2ccccc2)c2cc(C(=O)NCCCc3ccccc3)sc2n1 [Example 50],> 10 µM
21,Nc1nc(-c2ccccc2)c2cc(C(=O)NCCc3cccnc3)sc2n1 [Example 51],> 10 µM
22,CC(C)CNC(=O)c1cc2c(-c3ccccc3)nc(N)nc2s1 [Example 52],> 10 µM
23,Nc1nc(-c2ccccc2)c2cc(C(=O)NCCCO)sc2n1 [Example 53],< 10 µM
24,Nc1nc(-c2ccccc2)c2cc(C(=O)NCCc3cccs3)sc2n1 [Example 55],> 10 µM

row,SMILES,IC50
1,CC(C)NC(=O)c1cc2c(-c3ccccc3)nc(N)nc2s1 [Example 56],< 10 µM
2,Nc1nc(-c2ccccc2)c2cc(C(=O)NCCc3cnc[nH]3)sc2n1 [Example 57],< 10 µM
3,CCN(CC)CCCNC(=O)c1cc2c(-c3ccccc3)nc(N)nc2s1 [Example 58],> 10 µM
4,CCC(C)NC(=O)c1cc2c(-c3ccccc3)nc(N)nc2s1 (stereo not drawn) [Example 59],> 10 µM
5,Nc1nc(-c2ccccc2)c2cc(C(=O)Nc3ccccc3)sc2n1 [Example 60],> 10 µM
6,CCCNC(=O)c1cc2c(-c3ccc(C)cc3C)nc(N)nc2s1 [Example 61],< 10 µM
7,Nc1nc(-c2ccccc2)c2cc(C(=O)NC3CCCC3)sc2n1 [Example 62],< 10 µM
8,CN(c1ccccc1)c1nc(N)nc2sc(C(N)=O)cc12 [Example 63],> 10 µM
9,CNC(=O)c1cc2c(Nc3ccccc3)nc(N)nc2s1 [Example 64],> 10 µM
10,CNC(=O)c1cc2c(NCc3ccccc3)nc(N)nc2s1 [Example 65],> 10 µM
11,Nc1nc(-c2ccccc2)c2cc(C(=O)NCCCN3CCOCC3)sc2n1 [Example 66],> 10 µM
12,CNC(=O)c1cc2c(N(C)Cc3ccccc3)nc(N)nc2s1 [Example 67],> 10 µM
13,Nc1nc(-c2ccccc2)c2cc(C(=O)N3CCOCC3)sc2n1 [Example 70],> 10 µM
14,NC(=O)CNC(=O)c1cc2c(-c3ccccc3)nc(N)nc2s1 [Example 71],< 10 µM
15,Nc1nc(-c2ccccc2)c2cc(C(=O)NCCO)sc2n1 [Example 72],< 10 µM
16,CCNC(=O)c1cc2c(-c3c(C)cccc3C)nc(N)nc2s1 [Example 73],< 10 µM
17,"CCOC(=O)c1sc2nc(N)nc(-c3ccccc3)c2c1N [Example 74, 2,5-Diamino-4-phenyl-thieno[2,3-d]pyrimidine-6-carboxylic acid ethyl ester]",> 10 µM
18,"Cc1c(C(N)=O)sc2nc(N)nc(-c3ccccc3)c12 [Example 75, 2-Amino-5-methyl-4-phenyl-thieno[2,3-d]pyrimidine-6-carboxylic acid amide]",> 10 µM
19,CCOC(=O)c1cc2c(-c3c(C)cc(C)cc3C)nc(N)nc2s1 [Example 77],< 10 µM
20,Cc1ccc(-c2nc(N)nc3sc(C(=O)NC(C)C)cc23)c(C)c1 [Example 81],< 10 µM
21,Cc1ccc(-c2nc(N)nc3sc(C(=O)NCCO)cc23)c(C)c1 [Example 82],< 10 µM
22,Cc1ccc(-c2nc(N)nc3sc(C(=O)NCCCN(C)C)cc23)c(C)c1 [Example 83],< 10 µM
23,Cc1ccc(-c2nc(N)nc3sc(C(=O)NCCCO)cc23)c(C)c1 [Example 85],< 10 µM
24,Cc1ccc(-c2nc(N)nc3sc(C(=O)NCCc4c[nH]cn4)cc23)c(C)c1 [Example 86],< 10 µM

# Results, then the molecule that gave them:
row,IC50,SMILES
1,< 10 µM,"CCOC(=O)c1cc2c(-c3ccccc3)nc(N)nc2s1 [Example 1, 2-Amino-4-phenyl-thieno[2,3-d]pyrimidine-6-carboxylic acid ethyl ester]"
2,< 10 µM,CCOC(=O)c1cc2c(-c3ccc(Cl)cc3C)nc(N)nc2s1 [Example 3]
3,> 10 µM,CCOC(=O)c1cc2c(-c3ccc(OC(C)C)cc3)nc(N)nc2s1 [Example 5]
4,< 10 µM,CCOC(=O)c1cc2c(-c3c(C)cccc3C)nc(N)nc2s1 [Example 6]
5,> 10 µM,CCOC(=O)c1cc2c(-c3cccc(CN4CCCC4)c3)nc(N)nc2s1 [Example 7]
6,< 10 µM,CCOC(=O)c1cc2c(-c3ccc(OCC)cc3)nc(N)nc2s1 [Example 8]
7,< 10 µM,CCOC(=O)c1cc2c(-c3ccccc3Cl)nc(N)nc2s1 [Example 9]
8,> 10 µM,CCOC(=O)c1cc2c(-c3ccc(F)cc3)nc(N)nc2s1 [Example 10]
9,< 10 µM,CCOC(=O)c1cc2c(-c3ccc(C)cc3)nc(N)nc2s1 [Example 11]
10,> 10 µM,CCOC(=O)c1cc2c(-c3ccc(OC)cc3)nc(N)nc2s1 [Example 12]
11,> 10 µM,CCOC(=O)c1cc2c(-c3cc4ccccc4o3)nc(N)nc2s1 [Example 13]
12,> 10 µM,CCOC(=O)c1cc2c(-c3cccc(Cl)c3)nc(N)nc2s1 [Example 14]
13,< 10 µM,CCOC(=O)c1cc2c(-c3ccccc3C)nc(N)nc2s1 [Example 15]
14,< 10 µM,CCOC(=O)c1cc2c(-c3ccc(C#N)cc3)nc(N)nc2s1 [Example 16]
15,> 10 µM,CCOC(=O)c1cc2c(-c3cccc(C#N)c3)nc(N)nc2s1 [Example 17]
16,> 10 µM,CCOC(=O)c1cc2c(-c3ccsc3)nc(N)nc2s1 [Example 18]
17,> 10 µM,CCOC(=O)c1cc2c(Oc3ccccc3)nc(N)nc2s1 [Example 19]
18,> 10 µM,CCOC(=O)c1cc2c(NC3CCCCC3)nc(N)nc2s1 [Example 24]
19,> 10 µM,CCOC(=O)c1cc2c(Nc3ccccc3)nc(N)nc2s1 [Example 28]
20,> 10 µM,CCOC(=O)c1cc2c(-c3ccc(CN4CCCC4)cc3)nc(N)nc2s1 [Example 30]
21,< 10 µM,CCOC(=O)c1cc2c(-c3ccc(C#N)cc3C)nc(N)nc2s1 [Example 32]
22,> 10 µM,"CCOC(=O)c1cc2c(-c3ccc(CN4CCCCC4)cc3)nc(N)nc2s1 [Example 33, 2-Amino-4-(4-piperidin-1-ylmethyl-phenyl)-thieno[2,3-d]pyrimidine-6-carboxylic acid ethyl ester]"
23,< 10 µM,CCOC(=O)c1cc2c(-c3ccc(C)cc3C)nc(N)nc2s1 [Example 34]
24,< 10 µM,CCOC(=O)c1cc2c(-c3ccc(CO)cc3)nc(N)nc2s1 [Example 35]
25,> 10 µM,CCOC(=O)c1cc2c(-c3cccc(C(N)=O)c3)nc(N)nc2s1 [Example 40]
26,> 10 µM,CCOC(=O)c1cc2c(-c3ccc(CN4CCOCC4)cc3)nc(N)nc2s1 [Example 41]
27,> 10 µM,Nc1nc(-c2ccccc2)c2cc(C(=O)NCCN3CCOCC3)sc2n1 [Example 46]
28,> 10 µM,CCOC(=O)c1cc2c(-c3ccccc3CC)nc(N)nc2s1 [Example 76]
29,< 10 µM,CCOC(=O)c1cc2c(-c3ccc(OCC)cc3Cl)nc(N)nc2s1 [Example 78]
30,< 10 µM,CCOC(=O)c1cc2c(-c3ccc(C)cc3Cl)nc(N)nc2s1 [Example 79]
